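Cells were grown in 96-well plates and exposed to each compound for 48 hours at five concentrations; endpoints were interpolated linearly between bracketing concentrations, or set to the highest concentration if not reached. TGI: total growth inhibition.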
Legend:
Test in all cases: NCI tumour cell line growth inhibition, 48 h
[1] = tested on: CCRF-CEM leukemia
[2] = tested on: OVCAR-4 ovarian
[3] = tested on: SK-MEL-28 melanoma
[4] = tested on: ACHN renal
[5] = tested on: OVCAR-3 ovarian
[6] = tested on: HL-60(TB) leukemia
[7] = tested on: TK-10 renal
[8] = tested on: DU-145 prostate
[9] = tested on: COLO 205 colon
[10] = tested on: NCI-H460 lung
[11] = tested on: LOX IMVI melanoma
[12] = tested on: MDA-MB-231 breast
[13] = tested on: A498 renal
[14] = tested on: KM12 colon
[15] = tested on: MDA-N
[16] = tested on: SW-620 colon
[17] = tested on: SK-OV-3 ovarian
[18] = tested on: MOLT-4 leukemia
[19] = tested on: HCC-2998 colon

## c1cc2c(cc1NC1=NCCO1)CCCC2
[1]
  TGI: > 26.7 µM
[2]
  TGI: 71.2 µM
[3]
  TGI: 27.2 µM
[4]
  TGI: 72.9 µM
[5]
  TGI: 16.8 µM
[6]
  TGI: 7.5 µM
[7]
  TGI: 52.5 µM
[8]
  TGI: 24.6 µM
[9]
  TGI: 3.8 µM
[10]
  TGI: 15.7 µM
[11]
  TGI: 11.1 µM
[12]
  TGI: 6.1 µM
[13]
  TGI: 9.74 µM
[14]
  TGI: 10.5 µM
[15]
  TGI: 3.18 µM
[16]
  TGI: 47.3 µM
[17]
  TGI: 27.1 µM
[18]
  TGI: 9.67 µM
[19]
  TGI: 9.8 µM

Reference: PubChem BioAssay (NCI)
